Laboratory results reported in patent US20240207258A1, “HETEROCYCLIC PDK1 INHIBITORS FOR USE TO TREAT CANCER” (Viracta Therapeutics, Inc., priority 2015, published 2024).
pEC50: −log10 of the molar value.

What was measured:
U-266 = test: MTS cell proliferation assay, U-266; format: cell-based; conditions: Homo sapiens; U-266, 72 hr
Protocol: (§1) Cell proliferation was measured using the CellTiter 96 Aqueous Non-Radioactive Cell Proliferation Assay (Promega). The CellTiter 96® AQueous Assay is composed of solutions of a tetrazolium compound [3-(4,5-dimethylthiazol-2-yl)-5-(3-carboxymethoxyphenyl)-2-(4-sulfophenyl)-2H-tetrazolium, inner salt; MTS] and an electron coupling reagent (phenazine methosulfate) PMS. MTS is bioreduced by cells into a formazan product that is soluble in tissue culture medium. The absorbance of the formazan product at 490 nm can be measured directly from assay plates without additional processing. The quantity of formazan product as measured by the amount of 490 nm absorbance is directly proportional to the number of living cells in culture. Cells were seeded into 96-well or 384-well clear plates in a volume of 200 μL (96-well) or 50 μL (384-well) at optimized densities ranging from 1,000 to 40,000 cells per well for 96-well plates or 1,200 to 25,000 cells per well for 384-well plates depending on cell-line. After 4-6 hr recovery, serially diluted compounds in DMSO were added to the cells using (0.1% v/v final DMSO concentration). Cells were then grown at 37° C. in a humidified incubator with 5% CO2 for 72 hr. A 20:1 [3-(4,5-dimethylthiazol-2-yl)-5-(3-carboxymethoxyphenyl)-2-(4-sulfophenyl)-2H-tetrazolium](MTS):phenazine methosulfate (PMS) solution in DPBS was made immediately before use, added to each well, and cells were incubated for 1.5 hr at 37° C. The absorbance at 490 nm was then measured using a platereader. Absorbance values were normalized as percent of control (cells incubated in the presence of 0.1% v/v DMSO). Sigmoidal dose-response curves were plotted using log(inhibitor) vs. response—Variable slope (four parameters) model with a top value constrained to 100% (GraphPad Prism version 6.00 for Windows, GraphPad Software, La Jolla California USA). […] Curves for compounds that reached a plateau were matched exactly to the measurement points. […]

WSU-DLCL2 = test: MTS cell proliferation assay, WSU-DLCL2; format: cell-based; conditions: Homo sapiens, WSUDLCL2; WSU-DLCL2, 72 hr
Protocol: as §1

MV4-11 tumor xenografts = test: MV4-11 tumor xenograft efficacy; format: in vivo, mice
From the text: MV4-11 cells were propagated in vitro and implanted subcutaneous into the right flank of 9-week old female NCr nu/nu mice as described in Example 7. The animals were fed ad libitum water (reverse osmosis, 1 ppm Cl), and NIH 31 Modified and Irradiated Lab Diet® consisting of 18.0% crude protein, 5.0% crude fat, and 5.0% crude fiber. Fourteen days after tumor implantation, designated as Day 1 of the study, the animals were sorted into seven groups each consisting of ten mice with individual tumor volumes of 108 to 288 mm^3 and group mean tumor volumes (MTV) of 162 to 165 mm^3. On Day 1 of the study, dosing by oral gavage was initiated as follows: The dosing volume was 0.100 mL per 20 grams of body weight (5 mL/kg), and was scaled to the body weight of each individual animal. Group 1 mice received vehicle and served as the control group. Groups 2-4 received Compound 1 at 5, 11, and 25 mg/kg, respectively, qd×21. Groups 5-7 received Compound 2 at 5, 11, and 25 mg/kg, respectively, qd×21. Dosing solutions were prepared weekly by dissolving the appropriate amount of powder in 1% […] (DMA) in Labrasol® (vehicle) to yield a 5 mg/mL solution. The 5 mg/mL solution provided the 25 mg/kg dosage in a dosing volume of 5 mL/kg. An aliquot of the 5 mg/mL solution was diluted in the vehicle to concentrations of 2.2 and 1 mg/mL which provided the 11 and 5 mg/kg dosages, respectively, in a dosing volume of 5 mL/kg.
Tumors were measured using calipers twice per week. The study endpoint was defined as a mean tumor volume of 2000 mm^3 in the control group or 22 days, whichever came first and the study was terminated on Day 22. Animals were weighed daily on Days 1-5, then twice per week until the completion of the study. The mice were observed frequently for overt signs of any adverse, treatment related (TR) side effects, and clinical signs were recorded when observed. Individual body weight loss was monitored as per protocol and any animal whose weight exceeded the limits for acceptable body weight loss was euthanized. Group mean body weight loss also was monitored as per protocol. Dosing was to be suspended in any group whose weight exceeded the limits for acceptable mean body weight loss. If mean body weight recovered, then dosing may be resumed in that group, but at a lower dosage or less frequent dosing schedule. Acceptable toxicity was defined as a group mean body weight loss of less than 20% during the study and not more than 10% treatment-related (TR) deaths. Any dosing regimen resulting in greater toxicity was considered above the maximum tolerated dose (MTD). A death was classified as TR if attributable to treatment side effects as evidenced by clinical signs and/or necropsy, or may also be classified as TR if due to unknown causes during the dosing period or within 14 days of the last dose. A death was classified as non-treatment-related (NTR) if there was no evidence that death was related to treatment side effects.
Treatment efficacy was determined using data from the final day. The MTV (n) (the median tumor volume for the number of animals, n) on the final day was determined for each group. Group 1 mice that received vehicle p.o. qd×21 served as the control group for analysis of tumor growth inhibition (TGI) determined according to the formula % TGI=[1−(MTVdrug-treated/MTVcontrol)]×100. Treatment efficacy was also determined from the incidence and magnitude of regression responses observed during the study. Treatment may cause partial regression (PR) or complete regression (CR) of the tumor in an animal. In a PR response, the tumor volume was 50% or less of its Day 1 volume for three consecutive measurements during the course of the study, and equal to or greater than 13.5 mm^3 for one or more of these three measurements. In a CR response, the tumor volume was less than 13.5 mm^3 for three consecutive measurements during the course of the study.

SMILES	pEC50 (U-266)	pEC50 (WSU-DLCL2)	MTV (median tumor volume) on Day 22 (MV4-11 tumor xenografts; 5 mg/kg p.o. qd×21) [mm^3]	TGI (tumor growth inhibition) (MV4-11 tumor xenografts; 5 mg/kg p.o. qd×21, Day 22) [%]	regression responses (PRs) (MV4-11 tumor xenografts; 5 mg/kg p.o. qd×21, ten mice)	MTV (median tumor volume) on Day 22 (MV4-11 tumor xenografts; 11 mg/kg p.o. qd×21) [mm^3]	TGI (tumor growth inhibition) (MV4-11 tumor xenografts; 11 mg/kg p.o. qd×21, Day 22) [%]	regression responses (PRs) (MV4-11 tumor xenografts; 11 mg/kg p.o. qd×21, ten mice)	MTV (median tumor volume) on Day 22 (MV4-11 tumor xenografts; 25 mg/kg p.o. qd×21) [mm^3]	TGI (tumor growth inhibition) (MV4-11 tumor xenografts; 25 mg/kg p.o. qd×21, Day 22) [%]	regression responses (PRs) (MV4-11 tumor xenografts; 25 mg/kg p.o. qd×21, ten mice)
C[C@H](NC(=O)c1nc(C#N)cnc1NCc1ccc(-c2cnc3[nH]nc(N)c3n2)cc1)c1ccc(F)c(F)c1 [Compound 1, 3-[4-(3-Amino-1H-pyrazolo[3,4-b]pyrazin-5-yl)-benzylamino]-6-cyano-pyrazine-2-carboxylic acid [1-(3,4-difluoro-phenyl)-ethyl]-amide]	6.65	6.27	446	69	no regression responses	288	80	no regression responses	63	96	seven
CNc1n[nH]c2ncc(-c3ccc(CNc4ncc(C#N)nc4C(=O)N[C@@H](C)c4ccc(F)c(F)c4)cc3)cc12 [Compound 2, 6-Cyano-3-[4-(3-methylamino-1H-pyrazolo[3,4-b]pyridin-5-yl)-benzylamino]-pyrazine-2-carboxylic acid [1-(3,4-difluoro-phenyl)-ethyl]-amide]	6.89	6.45	320	77	no regression responses	108	92	three	40	97	eight
